Test results: PubChem BioAssay (NCI)
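Following 48 hours of exposure in 96-well plates, responses at five concentrations were used to interpolate endpoints linearly. Here, GI50 denotes the concentration required for 50% inhibition of growth. TGI is the concentration that stops growth completely.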

Legend:
Test in all cases: DTP human tumour cell line panel, 48 h
786-0 renal = test system: 786-0 renal
DU-145 prostate = test system: DU-145 prostate
MCF7 breast = test system: MCF7 breast
MDA-MB-435 = test system: MDA-MB-435
MOLT-4 leukemia = test system: MOLT-4 leukemia
RXF 393 renal = test system: RXF 393 renal
SF-539 CNS = test system: SF-539 CNS
SNB-19 CNS = test system: SNB-19 CNS
T-47D breast = test system: T-47D breast
UACC-257 melanoma = test system: UACC-257 melanoma

Structure (SMILES)	GI50 (786-0 renal) [µM]	TGI (786-0 renal) [µM]	GI50 (DU-145 prostate) [µM]	TGI (DU-145 prostate) [µM]	GI50 (MCF7 breast) [µM]	TGI (MCF7 breast) [µM]	GI50 (MDA-MB-435) [µM]	TGI (MDA-MB-435) [µM]	GI50 (MOLT-4 leukemia) [µM]	TGI (MOLT-4 leukemia) [µM]	GI50 (RXF 393 renal) [µM]	TGI (RXF 393 renal) [µM]	GI50 (SF-539 CNS) [µM]	TGI (SF-539 CNS) [µM]	GI50 (SNB-19 CNS) [µM]	TGI (SNB-19 CNS) [µM]	GI50 (T-47D breast) [µM]	TGI (T-47D breast) [µM]	GI50 (UACC-257 melanoma) [µM]	TGI (UACC-257 melanoma) [µM]
COC(=O)/C(=C\c1c(C)[nH]c2ccccc12)S(=O)(=O)c1ccccc1	8.23	24.1	2.94	8.01	2.81	12.5	2.86	13.8	1.9	> 100	3.63	31.9	3.4	11.5	7.59	22.1	3.21	16.6	6.97	20.9
Cc1ccc2c(=O)c3cccc(CC(=O)O)c3oc2c1C	> 100	> 100	> 100	> 100	> 100	> 100	> 100	> 100	> 100	> 100	> 100	> 100	> 100	> 100	> 100	> 100	> 100	> 100	> 100	> 100
C[C@]12CCC(=O)C(O)=C1CC[C@@H]1[C@@H]2CC[C@]2(C)C(=O)CC[C@@H]12	–	> 100	–	> 100	–	> 100	–	> 100	–	> 100	–	> 100	–	> 100	–	> 100	–	> 100	–	> 100
CCOP(=O)(OCC)/C(C#N)=C/c1ccco1	–	> 100	–	–	–	–	–	–	–	> 100	–	–	–	> 100	–	–	–	–	–	> 100
CCOC(=O)c1ccc(N2C(=O)/C(=C\OC)c3ccccc3C2=O)cc1	–	> 100	–	–	–	–	–	–	–	89.3	–	61.3	–	> 100	–	> 100	–	–	–	> 100
CC1NOC(=O)C1N=Nc1ccccc1Cl (stereo unspecified)	–	> 100	–	–	–	–	–	–	–	–	–	> 100	–	> 100	–	> 100	–	–	–	47
CC(=O)/C=C/c1ccc(C2CC(C)=Nc3c(ccc4c3C(=O)c3ccccc3C4=O)N2)cc1 (stereo unspecified)	–	> 100	–	–	–	–	–	–	–	> 100	–	> 100	–	> 100	–	> 100	–	–	–	–
C[C@]12CC[C@@H]3c4ccc(O)cc4CC[C@H]3[C@@H]1CC[C@@H]2NS(=O)(=O)Cc1ccc(Cl)cc1	2.66	6.87	3.99	16.8	2.92	9.62	2.78	9.03	2.62	31.3	2.04	6.06	1.88	4.39	3.66	47.1	2.85	8.11	2.59	8.08
CS(=O)c1ccc(COP(N)(=O)N(CCCl)CCCl)cc1 (stereo unspecified)	–	> 100	–	–	–	–	–	–	–	> 100	–	> 100	–	> 100	–	> 100	–	–	–	> 100
CCSc1nc(N=Cc2cccs2)c2cn[nH]c2n1	33.4	> 100	15.1	> 100	3.5	19.2	10.8	57.2	35.8	> 100	2.85	7.72	25.3	> 100	45.2	> 100	23.6	95	61	> 100
CCOC(CN=c1nc(N(C)C)ss1)OCC	–	39.7	–	> 100	–	> 65.3	–	32.4	–	25.4	–	37.3	–	31.4	–	> 77.4	–	> 63.7	–	40.7
ON=C1CCC(c2ccccc2)CC1 (stereo unspecified)	–	> 100	–	–	–	–	–	–	–	–	–	> 100	–	> 100	–	> 100	–	–	–	> 100
COc1nc(C)cc2c(=O)n(-c3ccccc3)n(CCCN3CCN(c4ccc(Cl)cc4)CC3)c(=O)c12	31.2	> 50	> 50	> 50	37.7	> 50	> 50	> 50	> 50	> 50	–	–	> 50	> 50	18.8	> 50	> 50	> 50	–	–
COC(=O)c1nc(NC#N)[nH]c(=O)c1C	–	> 100	–	–	–	–	–	–	–	> 100	–	> 100	–	> 93	–	> 100	–	–	–	> 100
CCOC(=O)C1C(=O)c2ccccc2CN1Cc1ccccc1 (stereo unspecified)	–	> 100	–	–	–	–	–	–	–	> 100	–	–	–	> 100	–	> 100	–	–	–	> 100
COc1ccc(/C=C2/C[N+](C)(C)C/C(=C/c3ccc(OC)cc3)C2=O)cc1	–	> 100	–	–	–	–	–	–	–	57.1	–	> 100	–	> 100	–	> 100	–	–	–	> 100
O=C(c1ccccc1)c1c(C(=O)c2ccccc2)c(-c2ccccc2)c2c(-c3ccccc3)sc(-c3ccccc3)c2c1-c1ccccc1	–	> 100	–	–	–	–	–	–	–	–	–	> 100	–	> 100	–	> 100	–	–	–	> 100
O=C1C(=O)c2ccccc2C(O)=C1C(CCc1ccccc1)C1=C(O)c2ccccc2C(=O)C1=O	–	> 100	–	29.1	–	> 100	–	28.4	–	–	–	> 100	–	> 100	–	> 100	–	> 100	–	66.7
O=c1cc2ccccc2nn1-c1ccccc1Cl	–	> 100	–	–	–	–	–	–	–	–	–	–	–	> 100	–	> 100	–	–	–	> 100
CC[N+](CC)(CC)CCCn1c2c(c3ccccc3c1=O)C(=O)c1ccccc1-2	7.35	32	–	–	2.89	7.4	18.3	62.6	5.58	> 100	0.056	17.6	–	–	31.6	> 100	98.1	> 100	12.3	36.3
O=C([CH-]C(=O)c1ccccc1)c1ccccc1.O=C([CH-]C(=O)c1ccccc1)c1ccccc1.[Nd+3].[OH-].[OH3+]	7.79	33.7	–	–	–	–	–	–	3.88	33.1	–	–	15.8	48	8.19	44.9	–	–	15.2	41.9
O=C(Oc1ccc(CCl)cc1)c1ccccc1	0.125	0.286	0.269	0.746	0.179	0.525	0.155	0.299	0.188	0.538	0.174	0.332	0.152	0.286	0.187	0.495	–	–	0.196	0.503
COC(=O)c1ccc(N=NN(C)CO)cc1	–	> 100	–	–	–	–	–	–	–	> 100	–	> 100	–	> 100	–	> 100	–	–	–	> 100
CC(C)(O)C1OCC(C2CCC3(C)C4=CCC5C(C)(C)C(O)CCC5(C)C4CCC23C)CC1O (stereo unspecified)	–	27.3	–	31.1	–	23.8	–	28.8	–	41.9	–	–	–	26.4	–	36.9	–	26.6	–	39.3

Structure (SMILES)	GI50 (786-0 renal) [µM]	TGI (786-0 renal) [µM]	GI50 (DU-145 prostate) [µM]	TGI (DU-145 prostate) [µM]	GI50 (MCF7 breast) [µM]	TGI (MCF7 breast) [µM]	GI50 (MDA-MB-435) [µM]	TGI (MDA-MB-435) [µM]	GI50 (MOLT-4 leukemia) [µM]	TGI (MOLT-4 leukemia) [µM]	GI50 (RXF 393 renal) [µM]	TGI (RXF 393 renal) [µM]	GI50 (SF-539 CNS) [µM]	TGI (SF-539 CNS) [µM]	GI50 (SNB-19 CNS) [µM]	TGI (SNB-19 CNS) [µM]	GI50 (T-47D breast) [µM]	TGI (T-47D breast) [µM]	GI50 (UACC-257 melanoma) [µM]	TGI (UACC-257 melanoma) [µM]
C=C1CC[C@@H]2C(C)(C)CCC[C@@]2(C)[C@@H]1Cc1cc(O)ccc1O	–	12	–	–	–	–	–	–	–	9.07	–	5.18	–	3.9	–	21.9	–	–	–	5.78
CCOC(=O)C(=O)Nc1c(N(CC)CC)n2ccccc2nc1=O	–	> 100	–	–	–	–	–	–	–	> 100	–	–	–	> 100	–	> 100	–	–	–	–
O=C(O)c1cc2c(cn1)[nH]c1ccccc12	–	> 100	–	–	–	–	–	–	–	> 100	–	> 100	–	> 100	–	> 100	–	–	–	> 100
COc1ccc2ccc([Se]c3ccc4ccc(OC)cc4c3)cc2c1	–	> 100	–	–	–	–	–	–	–	> 100	–	> 100	–	> 100	–	68.8	–	–	–	> 100
N.N.NC(CS)C(=O)[O-].NC(CS)C(=O)[O-].[Pt+4] (stereo unspecified)	> 50	> 50	–	–	–	–	–	–	> 50	> 50	> 50	> 50	> 50	> 50	> 50	> 50	–	–	> 50	> 50
COC(=O)c1c(CC#N)cccc1CC#N	–	> 100	–	–	–	–	–	–	–	> 100	–	> 100	–	> 100	–	> 100	–	–	–	> 100
CC(C(=O)Oc1ccc2ccccc2c1-c1c(O)ccc2ccccc12)c1ccccc1 (stereo unspecified)	–	29.3	–	–	–	–	–	–	–	44.8	–	22.9	–	33.9	–	28.4	–	–	–	27.6
Cc1c2cc[nH]c(=O)c2cc2c(=O)c3cnccc3[nH]c12	–	> 100	–	–	–	–	–	–	–	> 100	–	> 100	–	–	–	> 100	–	–	–	> 100
COC(=O)C(Nc1ccc(OC)cc1)c1ccccc1 (stereo unspecified)	–	> 100	–	> 100	–	> 100	–	> 100	–	> 100	–	–	–	> 100	–	> 100	–	> 100	–	> 100
Nc1ccccc1C#C/C=C\C#Cc1ccc(Cl)cc1Cl	13.5	27.4	13.5	37.8	3.52	39.7	2.41	5.8	1.62	> 100	14.3	40.7	12.3	28.9	–	–	18.9	78.5	18.3	40.9
CN(c1ccccc1)C(c1ccccc1)C(O)c1ccccc1 (stereo unspecified)	–	33.8	–	–	–	–	–	–	–	42.1	–	–	–	37.7	–	36.4	–	–	–	35.6
O=S1(=O)C[C@@H](O)[C@H](O)CS1	–	> 100	–	–	–	–	–	–	–	> 100	–	> 100	–	> 100	–	> 100	–	–	–	> 100
CCOC(=O)C(C)c1cc(C2(C)OCCO2)c(C)o1 (stereo unspecified)	–	> 100	–	–	–	–	–	–	–	> 100	–	> 100	–	> 100	–	> 100	–	–	–	–
CC(=O)OCC1OC(n2c(=O)n(-c3ccccc3)c(=O)c3ccccc32)C(OC(C)=O)C(OC(C)=O)C1OC(C)=O (stereo unspecified)	–	> 100	–	–	–	–	–	–	–	> 100	–	> 100	–	> 100	–	> 100	–	–	–	> 100
COc1ccc(-c2nc(-c3ccccc3)c(-c3ccccc3)n2C2CC2)cc1OC1CCCC1	98.2	> 165	94.5	> 165	67.6	> 165	147	> 165	45.7	> 165	–	–	90.9	> 165	> 165	> 165	51.5	> 165	> 165	> 165
Cc1cc(C)nc(Nc2nc3ccc([N+](=O)[O-])cc3[nH]2)n1	–	> 100	–	–	–	–	–	–	–	> 100	–	–	–	> 100	–	> 100	–	–	–	> 100
Nc1c(-c2nc3ccccc3[nH]2)sc(=S)n1-c1ccccc1	–	> 100	–	–	–	–	–	–	–	45.8	–	> 100	–	> 100	–	> 100	–	–	–	> 100
O=C(O)C12C3CCCC1C2CC3 (stereo unspecified)	–	> 100	–	–	–	–	–	–	–	> 100	–	> 100	–	> 100	–	> 100	–	–	–	> 100
O=C1C(=O)N(c2ccc(Cl)c(Cl)c2)C(=O)C(=O)C1c1nc2ccccc2o1	–	> 100	–	–	–	–	–	–	–	> 100	–	–	–	> 100	–	> 100	–	–	–	> 100
O=C1OC2(c3ccccc3Oc3ccccc32)c2ccccc21	–	> 100	–	–	–	–	–	–	–	> 100	–	–	–	> 100	–	> 100	–	–	–	> 100
O=C1OC(=O)C2C1C1(c3ccccc3)C(c3ccccc3)=C(c3ccccc3)C2(c2ccccc2)S1=O (stereo unspecified)	> 100	> 100	> 100	> 100	> 100	> 100	> 100	> 100	–	–	> 100	> 100	> 100	> 100	> 100	> 100	> 100	> 100	> 100	> 100
COC(=O)C1=C(O)C(O)=C(C(=O)OC)C1	–	> 100	–	–	–	–	–	–	–	> 100	–	> 100	–	> 100	–	> 100	–	–	–	> 100
c1ccc(N=C2c3ccccc3C3=NCCCN32)cc1	–	> 100	–	–	–	–	–	–	–	> 100	–	> 100	–	> 100	–	> 100	–	–	–	> 100
